We go through 19 compounds from patent US20250340538A1, “IMIDAZOLONE DERIVATIVES AS INHIBITORS OF PROTEIN KINASES IN PARTICULAR DYRK1A, CLK1 AND/OR CLK4” (PERHA PHARMACEUTICALS, priority 2021, published 2025).

The target of one experiment is T1, CLK1 (Homo sapiens, UniProt P49759).
T1 construct: GST-fusion or His-tag (not specified per kinase); purchased ProQinase GmbH; host or cells: Sf9 insect cells or E. coli (not specified per kinase)
The experiment in a line: Radiometric protein kinase assay (33PanQinase Activity Assay), CLK1. The experiment is classed as biochemical. As to conditions: read-out: Potency Class CLK1. As to the method:
Assays were performed by ProQinase GmbH (Engesserstr. 4, D-79108 Freiburg, Germany. www.proqinase.com). The IC50 profile of all compounds was determined using 12 protein kinases (CDK2/cyclin E, CK1ε, CLK1, 2, 3, 4, DYRK1A, 1B, 2, 3, 4, GSK3β).
(§1) The compounds were provided as […] in 100% DMSO. Prior to testing, the 1 μM stock solutions were subjected to a serial, semi-logarithmic dilution using 100% DMSO as a solvent. […] In the process, 90 μl H2O were added to each well of each compound dilution plate. To minimize potential precipitation, the H2O was added to each plate only a few minutes before the transfer of the compound solutions into the assay plates. The plate was shaken thoroughly, resulting in a compound dilution plate/10% DMSO.
(§2) For the assays (see below), 5 μL solution from each well of the compound dilution plates/10% DMSO were transferred into the assay plates. The final volume of the assay was 50 μL. All compounds were tested at 10 final assay concentrations in the range from 10 μM to 30 nM. The final DMSO concentration in the reaction cocktails was 1% in all cases.
(§3) All protein kinases provided by ProQinase were expressed in Sf9 insect cells or in E. coli as recombinant GST-fusion proteins or His-tagged proteins, either as full-length or enzymatically active fragments. All kinases were produced from human cDNAs and purified by either GSH-affinity chromatography or immobilized metal. Affinity tags were removed from a number of kinases during purification. The purity of the protein kinases was examined by SDS-PAGE/Coomassie staining, the identity was checked by mass spectroscopy.
(§4) A radiometric protein kinase assay (33PanQinase® Activity Assay) was used for measuring the kinase activity of the 12 protein kinases. All kinase assays were performed in 96-well FlashPlates™ from PerkinElmer (Boston, MA, USA) in a 50 μL reaction volume. The reaction cocktail was pipetted in four steps in the following order: • 25 μL of assay buffer (standard buffer/[γ-^33P]-ATP), • 10 μL of ATP solution (in H2O), • 5 μL of test compound (in 10% DMSO), • 10 μL of enzyme/substrate mixture.
(§5) The reaction cocktails were incubated at 30° C. for 60 minutes. The reaction was stopped with 50 μL of 2% (v/v) H3PO4, plates were aspirated and washed two times with 200 μL 0.9% (w/v) NaCl. Incorporation of ^33Pi was determined with a microplate scintillation counter (Microbeta, Wallac). The IC50 values for all compounds were calculated from the dose response curves
As a parameter for assay quality, the Z′-factor (Zhang et al., J. Biomol. Screen. 2: 67-73, 1999) for the low and high controls of each assay plate (n=8) was used. ProQinase's criterion for repetition of an assay plate is a Z′-factor below 0.4 (Iversen et al., J. Biomol. Screen. 3: 247-252, 2006).

For a further experiment, the target named is T2, DYRK1A (Homo sapiens, UniProt Q13627).
T2 construct: GST-fusion or His-tag (not specified per kinase); purchased ProQinase GmbH; host or cells: Sf9 insect cells or E. coli (not specified per kinase)
Description: Radiometric protein kinase assay (33PanQinase Activity Assay), DYRK1A. The experiment is classed as biochemical. To be noted: for Selectivity Class DYRK1A vs. CLK1: ratio of IC50 on CLK1 over IC50 on DYRK1A; for Selectivity Class DYRK1A vs. DYRK1B: ratio of IC50 on DYRK1B over IC50 on DYRK1A. As to the method: The IC50 profile of all compounds was determined using 12 protein kinases (CDK2/cyclin E, CK1ε, CLK1, 2, 3, 4, DYRK1A, 1B, 2, 3, 4, GSK3β).
as §1, §2, §3, §4, §5

The mark [1] stands for this setting: class by IC50 on CLK1, from dose-response curves.
Where [2] appears, read: class by IC50 on DYRK1A, from dose-response curves, read-out: Potency Class DYRK1A.

Structures are written as SMILES. Read-outs that look alike come from different tables or passages of the source.

T1 sequence (P49759 whole entry, the tested form may be a part): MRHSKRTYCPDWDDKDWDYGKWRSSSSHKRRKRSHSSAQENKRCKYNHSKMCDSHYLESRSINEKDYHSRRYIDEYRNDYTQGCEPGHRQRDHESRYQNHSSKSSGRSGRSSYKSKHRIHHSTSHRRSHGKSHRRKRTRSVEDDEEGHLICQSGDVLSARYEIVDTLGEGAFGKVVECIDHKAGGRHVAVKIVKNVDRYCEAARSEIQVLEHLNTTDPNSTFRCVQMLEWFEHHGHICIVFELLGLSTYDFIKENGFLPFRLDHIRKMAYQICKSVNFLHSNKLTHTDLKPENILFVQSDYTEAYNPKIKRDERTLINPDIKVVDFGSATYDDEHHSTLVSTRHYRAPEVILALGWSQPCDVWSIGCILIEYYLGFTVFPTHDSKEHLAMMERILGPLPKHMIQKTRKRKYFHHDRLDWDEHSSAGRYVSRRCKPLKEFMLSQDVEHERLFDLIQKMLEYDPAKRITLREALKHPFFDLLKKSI

Regarding `O=C1NC(N[C@@H]2CCC[C@@H](O)CC2)=N/C1=C\c1ccc2nccnc2c1` (racemic) [Compound 6, (±)-(4Z)-2-[[trans-4-hydroxycycloheptyl]amino]-4-(quinoxalin-6-ylmethylene)-1H-imidazol-5-one], at CLK1 (setting [1]), the IC50 was above 50 nM.
In the case of `CO[C@@H]1CCC[C@@H](NC2=N/C(=C\c3ccc4nccnc4c3)C(=O)N2)CC1` (racemic) [Compound 7, (+)-(4Z)-2-[[trans-4-methoxycycloheptyl]amino]-4-(quinoxalin-6-ylmethylene)-1H-imidazol-5-one], the IC50 on DYRK1A (setting [2]) and at CLK1 (setting [1]) was above 50 nM throughout. The “Selectivity Class DYRK1A vs. CLK1” value on DYRK1A is “II (ratio between 2 and 10 fold)”. For the same compound, the “Selectivity Class DYRK1A vs. DYRK1B” value on DYRK1A was “II (ratio between 2 and 10 fold)”.
In the case of `CO[C@H]1CCCC[C@@H](NC2=N/C(=C\c3ccc4nccnc4c3)C(=O)N2)C1` (racemic) [Compound 8, (+)-(4Z)-2-[[cis-3-methoxycycloheptyl]amino]-4-(quinoxalin-6-ylmethylene)-1H-imidazol-5-one], the IC50 at CLK1 (setting [1]) is above 50 nM.
`CC1(C)CCC(NC2=N/C(=C\c3ccc4nccnc4c3)C(=O)N2)CO1` (racemic) [Compound 36, (±)-(4Z)-2-[(6,6-dimethyltetrahydropyran-3-yl)amino]-4-(quinoxalin-6-ylmethylene)-1H-imidazol-5-one]: the IC50 on DYRK1A (setting [2]) and on CLK1 (setting [1]) was above 50 nM each time. Further, the “Selectivity Class DYRK1A vs. CLK1” value at DYRK1A was “II (ratio between 2 and 10 fold)”. For the same compound, on DYRK1A, the “Selectivity Class DYRK1A vs. DYRK1B” value is “II (ratio between 2 and 10 fold)”.
Consider `O=C1NC(NC2CCCCOC2)=N/C1=C\c1ccc2nccnc2c1` (racemic) [Compound 41, (4Z)-2-(Oxepan-3-ylamino)-4-(quinoxalin-6-ylmethylene)-1H-imidazol-5-one], for which the IC50 on DYRK1A (setting [2]) and at CLK1 (setting [1]) was above 50 nM throughout. Moreover, the “Selectivity Class DYRK1A vs. CLK1” value at DYRK1A is “III (ratio between 0.5 and 2 fold)”. On DYRK1A, the “Selectivity Class DYRK1A vs. DYRK1B” value was “II (ratio between 2 and 10 fold)”.
With `O=C1NC(NC2CCCCCC2)=N/C1=C\c1ccc2nccnc2c1` [Compound 1, (4Z)-2-(cycloheptylamino)-4-(quinoxalin-6-ylmethylene)-1H-imidazol-5-one], the IC50 at CLK1 (setting [1]) is above 50 nM.
The same measure, in the same setting: as for `O=C1NC(NC2CCCCCCC2)=N/C1=C\c1ccc2nccnc2c1` [Compound 2, (4Z)-2-(cyclooctylamino)-4-(quinoxalin-6-ylmethylene)-1H-imidazol-5-one], the figure is above 50 nM.
Consider `O=C1NC(NCC2CCCCC2)=N/C1=C\c1ccc2nccnc2c1` [Compound 3, (4Z)-2-(cyclohexylmethylamino)-4-(quinoxalin-6-ylmethylene)-1H-imidazol-5-one], for which the IC50 at DYRK1A (setting [2]) and at CLK1 (setting [1]) was above 50 nM throughout. Besides, on DYRK1A, the “Selectivity Class DYRK1A vs. CLK1” value is “III (ratio between 0.5 and 2 fold)”. Further, the “Selectivity Class DYRK1A vs. DYRK1B” value on DYRK1A is “II (ratio between 2 and 10 fold)”.
`CO[C@@H]1CCC[C@H]1NC1=N/C(=C\c2ccc3nccnc3c2)C(=O)N1` [Compound 4, (4Z)-2-[[(1R,2R)-2-methoxycyclopentyl]amino]-4-(quinoxalin-6-ylmethylene)-1H-imidazol-5-one]: the IC50 at DYRK1A (setting [2]) is above 50 nM. At DYRK1A, the “Selectivity Class DYRK1A vs. CLK1” value is “II (ratio between 2 and 10 fold)”; the “Selectivity Class DYRK1A vs. DYRK1B” value is “II (ratio between 2 and 10 fold)”. The IC50 at CLK1 (setting [1]) is above 50 nM.
For `CO[C@H]1CCC[C@@H]1NC1=N/C(=C\c2ccc3nccnc3c2)C(=O)N1` [Compound 5, (4Z)-2-[[(1S,2S)-2-Methoxycyclopentyl]amino]-4-(quinoxalin-6-ylmethylene)-1H-imidazol-5-one], the IC50 on DYRK1A (setting [2]) was above 50 nM. At DYRK1A, the “Selectivity Class DYRK1A vs. CLK1” value was “III (ratio between 0.5 and 2 fold)”; the “Selectivity Class DYRK1A vs. DYRK1B” value was “II (ratio between 2 and 10 fold)”. Also, the IC50 on CLK1 (setting [1]) was above 50 nM.
For `CC(C)C[C@H](CO)NC1=N/C(=C\c2ccc3nccnc3c2)C(=O)N1` [Compound 9, (4Z)-2-[[(1R)-1-(hydroxymethyl)-3-methyl-butyl]amino]-4-(quinoxalin-6-ylmethylene)-1H-imidazol-5-one], the IC50 at DYRK1A (IC50 class A to E, read-out: Potency Class DYRK1A) is 5 to 10 nM; at DYRK1A (setting [2]), 5 to 10 nM; at DYRK1A (read-out: IC50 on DYRK1A (most potent DYRK1A inhibitors)), at most 10 nM; on CLK1 (IC50 class A to E) it was 25 to 50 nM; at CLK1 (setting [1]), 25 to 50 nM. Moreover, the “Selectivity Class DYRK1A vs. CLK1” value at DYRK1A was “II (ratio between 2 and 10 fold)”. Moreover, the “Selectivity Class DYRK1A vs. DYRK1B” value at DYRK1A is “II (ratio between 2 and 10 fold)”.
In the case of `COC[C@@H](CC(C)C)NC1=N/C(=C\c2ccc3nccnc3c2)C(=O)N1` [Compound 10, (4Z)-2-[[(1R)-1-(methoxymethyl)-3-methyl-butyl]amino]-4-(quinoxalin-6-ylmethylene)-1H-imidazol-5-one], the IC50 on CLK1 (setting [1]) was above 50 nM.
As for `CCOC[C@@H](CC(C)C)NC1=N/C(=C\c2ccc3nccnc3c2)C(=O)N1` [Compound 11, (4Z)-2-[[(1R)-1-(ethoxymethyl)-3-methyl-butyl]amino]-4-(quinoxalin-6-ylmethylene)-1H-imidazol-5-one], the results for the IC50 on DYRK1A (setting [2]) and on CLK1 (setting [1]) were 10 to 25 nM and above 50 nM, respectively. Moreover, the “Selectivity Class DYRK1A vs. CLK1” value at DYRK1A was “I (ratio of IC50 on CLK1 or DYRK1B over IC50 on DYRK1A ≥10 fold (most DYRK1A-selective compounds))”. Also, at DYRK1A, the “Selectivity Class DYRK1A vs. DYRK1B” value is “II (ratio between 2 and 10 fold)”.
For the compound `CC(C)C[C@H](COCc1ccccc1)NC1=N/C(=C\c2ccc3nccnc3c2)C(=O)N1` [Compound 12, (4Z)-2-[[(1R)-1-(benzyloxymethyl)-3-methyl-butyl]amino]-4-(quinoxalin-6-ylmethylene)-1H-imidazol-5-one], the IC50 at DYRK1A (setting [2]) and at CLK1 (setting [1]) was above 50 nM throughout. Besides, at DYRK1A, the “Selectivity Class DYRK1A vs. CLK1” value is “I (ratio of IC50 on CLK1 or DYRK1B over IC50 on DYRK1A ≥10 fold (most DYRK1A-selective compounds))”. Moreover, the “Selectivity Class DYRK1A vs. DYRK1B” value on DYRK1A is “II (ratio between 2 and 10 fold)”.
As to `CC(C)C[C@H](COCc1ccc(F)cc1)NC1=N/C(=C\c2ccc3nccnc3c2)C(=O)N1` [Compound 13, (4Z)-2-[[(1R)-1-[(4-fluorophenyl)methoxymethyl]-3-methyl-butyl]amino]-4-(quinoxalin-6-ylmethylene)-1H-imidazol-5-one], the IC50 at CLK1 (setting [1]) is above 50 nM.
As for `CC(C)C[C@H](CF)NC1=N/C(=C\c2ccc3nccnc3c2)C(=O)N1` [Compound 14, (4Z)-2-[[(1R)-1-(fluoromethyl)-3-methyl-butyl]amino]-4-(quinoxalin-6-ylmethylene)-1H-imidazol-5-one], the IC50 at DYRK1A (setting [2]) was 10 to 25 nM; at CLK1 (setting [1]), above 50 nM. At DYRK1A, the “Selectivity Class DYRK1A vs. CLK1” value is “II (ratio between 2 and 10 fold)”. Moreover, the “Selectivity Class DYRK1A vs. DYRK1B” value on DYRK1A is “II (ratio between 2 and 10 fold)”.
`O=C1NC(N[C@@H](CO)c2ccccc2)=N/C1=C\c1ccc2nccnc2c1` [Compound 24, (4Z)-2-[[(1R)-2-hydroxy-1-phenyl-ethyl]amino]-4-(quinoxalin-6-ylmethylene)-1H-imidazol-5-one]: the IC50 on CLK1 (setting [1]) is 25 to 50 nM.
Turning to `O=C1NC(N[C@H](CO)c2ccccc2)=N/C1=C\c1ccc2nccnc2c1` [Compound 25, (4Z)-2-[[(1S)-2-Hydroxy-1-phenyl-ethyl]amino]-4-(quinoxalin-6-ylmethylene)-1H-imidazol-5-one], the IC50 at CLK1 (setting [1]) was above 50 nM.
For `O=C1NC(NC2CCCCC2)=N/C1=C\c1ccc2nccnc2c1` [Compound 74, (4Z)-2-(Cyclohexylamino)-4-(quinoxalin-6-ylmethylene)-1H-imidazol-5-one], the IC50 at CLK1 (setting [1]) is above 50 nM.
